Assay results published in ChEMBL document CHEMBL1201862, “PubChem BioAssay data set” (2004).
Calls of active or inactive are those of the source.

Legend:
[1] = control 3'UTR Renilla luciferase suppression, dose response, counter-screen for Shn3 inhibitor project, cell-based, Clone20-Shn3RL, cherry-picked (AID 624133); type: functional
[2] = target: T1, Heat shock factor protein 1 (Mus musculus, UniProt P38532); assay: inhibition of MG132-induced HSE-luciferase signal, confirmation, cell-based, NIH3T3, luminescence, dose retest (AID 2382); type: functional;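 further: NIH3T3 fibroblasts with HSF1-driven luciferase reporter stressed by proteasome inhibitor MG132; luminescence from HSF1-driven luciferase expression after 8 hours of MG132 stress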
T1 sequence (P38532 whole entry): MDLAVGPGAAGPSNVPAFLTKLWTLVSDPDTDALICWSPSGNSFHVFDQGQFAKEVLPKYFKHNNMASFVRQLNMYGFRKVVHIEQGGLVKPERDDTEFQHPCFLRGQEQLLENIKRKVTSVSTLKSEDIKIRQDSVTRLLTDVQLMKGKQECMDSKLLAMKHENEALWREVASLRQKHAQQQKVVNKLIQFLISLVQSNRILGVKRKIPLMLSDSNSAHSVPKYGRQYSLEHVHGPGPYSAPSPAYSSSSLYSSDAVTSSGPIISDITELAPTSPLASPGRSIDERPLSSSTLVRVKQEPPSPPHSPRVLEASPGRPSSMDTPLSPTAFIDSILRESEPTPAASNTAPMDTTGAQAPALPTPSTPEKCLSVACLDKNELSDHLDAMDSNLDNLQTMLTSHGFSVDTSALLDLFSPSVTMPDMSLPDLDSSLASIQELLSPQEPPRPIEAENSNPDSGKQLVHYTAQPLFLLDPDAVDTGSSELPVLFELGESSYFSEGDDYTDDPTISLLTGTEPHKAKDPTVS

cells [3] = type: functional, cell-based
[4] = target: Neurotensin receptor type 1 (Homo sapiens, UniProt P30989); type: functional;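 further: Image-based confirmatory dose-response assay measuring agonist activity at NTR1; NTR1-expressing U2OS osteosarcoma cells imaged for beta-arrestin GFP spot formation; agonist potency where compounds increase beta-arrestin recruitment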
Sequence of Neurotensin receptor type 1 (P30989 whole entry): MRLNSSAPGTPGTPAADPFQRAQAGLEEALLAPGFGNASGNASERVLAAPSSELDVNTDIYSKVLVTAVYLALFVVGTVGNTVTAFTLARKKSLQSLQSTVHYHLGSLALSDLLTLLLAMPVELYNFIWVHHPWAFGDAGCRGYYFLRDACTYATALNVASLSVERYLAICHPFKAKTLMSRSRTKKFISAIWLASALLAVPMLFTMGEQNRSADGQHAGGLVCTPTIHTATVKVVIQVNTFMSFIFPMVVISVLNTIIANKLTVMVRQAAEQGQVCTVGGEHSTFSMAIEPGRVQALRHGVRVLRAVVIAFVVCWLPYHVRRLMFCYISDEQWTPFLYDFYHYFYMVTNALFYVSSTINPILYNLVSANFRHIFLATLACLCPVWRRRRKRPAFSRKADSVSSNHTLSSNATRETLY

[5] = HepG2 cell cytotoxicity, dose response, cytotoxicity control for Shn3 inhibitor project, CellTiter-Glo, cherry-picked (AID 624134); type: functional, cell-based
cells [6] = type: functional, cell-based; remark: listed apart in the source
[7] = target: T2, Type-1 angiotensin II receptor (Homo sapiens, UniProt P30556); assay: AT1 receptor antagonists, dose response, selectivity assay for APJ receptor antagonist project, cell-based, uHTS hits (AID 463214); type: functional;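 further: antagonist potency against angiotensin II stimulated AT1 response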
T2 sequence (P30556 whole entry): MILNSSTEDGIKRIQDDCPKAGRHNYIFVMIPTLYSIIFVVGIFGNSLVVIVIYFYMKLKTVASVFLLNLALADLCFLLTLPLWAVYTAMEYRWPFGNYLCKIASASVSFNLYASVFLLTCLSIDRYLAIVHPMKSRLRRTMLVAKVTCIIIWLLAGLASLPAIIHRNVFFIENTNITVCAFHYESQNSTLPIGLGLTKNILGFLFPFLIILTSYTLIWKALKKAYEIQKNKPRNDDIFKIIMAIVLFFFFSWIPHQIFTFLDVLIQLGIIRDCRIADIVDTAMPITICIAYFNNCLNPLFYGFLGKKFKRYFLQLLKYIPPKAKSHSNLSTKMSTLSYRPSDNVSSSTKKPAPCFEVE

Beta-galactosidase = Beta-galactosidase (Escherichia coli, UniProt Q8VNN2); assay: PubChem AID 485352; type: functional
Sequence of Beta-galactosidase (Q8VNN2 whole entry): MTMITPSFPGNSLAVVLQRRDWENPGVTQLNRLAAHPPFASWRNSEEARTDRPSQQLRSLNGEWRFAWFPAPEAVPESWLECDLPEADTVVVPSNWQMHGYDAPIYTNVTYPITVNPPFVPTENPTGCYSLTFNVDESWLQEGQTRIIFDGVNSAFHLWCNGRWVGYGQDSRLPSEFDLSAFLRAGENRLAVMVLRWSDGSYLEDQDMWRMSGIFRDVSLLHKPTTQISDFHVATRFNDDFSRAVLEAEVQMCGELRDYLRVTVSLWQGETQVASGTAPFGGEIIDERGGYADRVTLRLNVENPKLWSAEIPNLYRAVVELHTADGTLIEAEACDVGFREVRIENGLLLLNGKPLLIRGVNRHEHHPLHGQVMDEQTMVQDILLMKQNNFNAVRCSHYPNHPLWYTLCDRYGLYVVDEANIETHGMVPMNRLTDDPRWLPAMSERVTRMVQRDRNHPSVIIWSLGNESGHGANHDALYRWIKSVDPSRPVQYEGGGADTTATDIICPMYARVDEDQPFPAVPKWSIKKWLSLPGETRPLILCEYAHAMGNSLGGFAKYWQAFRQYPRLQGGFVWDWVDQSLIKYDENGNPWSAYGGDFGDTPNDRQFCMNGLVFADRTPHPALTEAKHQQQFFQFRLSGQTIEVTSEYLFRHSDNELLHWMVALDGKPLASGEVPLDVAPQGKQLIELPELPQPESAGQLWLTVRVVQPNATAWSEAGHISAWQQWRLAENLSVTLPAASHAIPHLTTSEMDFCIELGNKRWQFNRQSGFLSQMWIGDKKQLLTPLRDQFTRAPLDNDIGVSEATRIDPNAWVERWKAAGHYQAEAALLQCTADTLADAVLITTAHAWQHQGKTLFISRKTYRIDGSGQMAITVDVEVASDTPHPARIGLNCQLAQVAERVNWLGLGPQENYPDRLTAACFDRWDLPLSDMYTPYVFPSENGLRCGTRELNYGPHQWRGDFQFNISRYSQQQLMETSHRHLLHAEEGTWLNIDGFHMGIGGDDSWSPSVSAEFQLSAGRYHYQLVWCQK

[8] = Shn3 3'UTR reporter inhibitors, dose response, cell-based, Clone20 osteoblasts, firefly luciferase, cherry-picked (AID 624132); type: functional;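 further: firefly luciferase luminescence from reporter carrying the Shn3 3'UTR in osteoblasts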
Protein skinhead-1 = target: T3, Protein skinhead-1 (Caenorhabditis elegans, UniProt P34707); type: functional
T3 sequence (P34707 whole entry): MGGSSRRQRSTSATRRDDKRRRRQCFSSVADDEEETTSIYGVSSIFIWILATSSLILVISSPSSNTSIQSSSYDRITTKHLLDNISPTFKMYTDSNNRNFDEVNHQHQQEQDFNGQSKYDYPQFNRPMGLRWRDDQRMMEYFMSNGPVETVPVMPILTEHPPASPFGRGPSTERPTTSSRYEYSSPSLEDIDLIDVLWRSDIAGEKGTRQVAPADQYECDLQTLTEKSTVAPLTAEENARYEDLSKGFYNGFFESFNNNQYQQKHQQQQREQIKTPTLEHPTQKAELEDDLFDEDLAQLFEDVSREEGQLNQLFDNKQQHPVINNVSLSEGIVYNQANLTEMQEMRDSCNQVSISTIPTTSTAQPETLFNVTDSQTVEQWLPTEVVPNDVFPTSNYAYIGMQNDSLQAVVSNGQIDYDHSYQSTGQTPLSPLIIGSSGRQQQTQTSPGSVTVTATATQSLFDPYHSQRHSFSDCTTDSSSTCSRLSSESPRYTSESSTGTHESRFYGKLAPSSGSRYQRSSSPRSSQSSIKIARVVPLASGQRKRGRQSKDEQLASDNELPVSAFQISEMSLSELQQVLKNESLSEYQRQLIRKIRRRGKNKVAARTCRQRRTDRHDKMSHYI

[9] = target: T4, Sentrin-specific protease 6 (Homo sapiens, UniProt Q9GZR1); type: functional;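 further: Luminescence-based dose-response confirmatory assay of SENP6 inhibition, following up an ultra-high-throughput screen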
T4 sequence (Q9GZR1 whole entry): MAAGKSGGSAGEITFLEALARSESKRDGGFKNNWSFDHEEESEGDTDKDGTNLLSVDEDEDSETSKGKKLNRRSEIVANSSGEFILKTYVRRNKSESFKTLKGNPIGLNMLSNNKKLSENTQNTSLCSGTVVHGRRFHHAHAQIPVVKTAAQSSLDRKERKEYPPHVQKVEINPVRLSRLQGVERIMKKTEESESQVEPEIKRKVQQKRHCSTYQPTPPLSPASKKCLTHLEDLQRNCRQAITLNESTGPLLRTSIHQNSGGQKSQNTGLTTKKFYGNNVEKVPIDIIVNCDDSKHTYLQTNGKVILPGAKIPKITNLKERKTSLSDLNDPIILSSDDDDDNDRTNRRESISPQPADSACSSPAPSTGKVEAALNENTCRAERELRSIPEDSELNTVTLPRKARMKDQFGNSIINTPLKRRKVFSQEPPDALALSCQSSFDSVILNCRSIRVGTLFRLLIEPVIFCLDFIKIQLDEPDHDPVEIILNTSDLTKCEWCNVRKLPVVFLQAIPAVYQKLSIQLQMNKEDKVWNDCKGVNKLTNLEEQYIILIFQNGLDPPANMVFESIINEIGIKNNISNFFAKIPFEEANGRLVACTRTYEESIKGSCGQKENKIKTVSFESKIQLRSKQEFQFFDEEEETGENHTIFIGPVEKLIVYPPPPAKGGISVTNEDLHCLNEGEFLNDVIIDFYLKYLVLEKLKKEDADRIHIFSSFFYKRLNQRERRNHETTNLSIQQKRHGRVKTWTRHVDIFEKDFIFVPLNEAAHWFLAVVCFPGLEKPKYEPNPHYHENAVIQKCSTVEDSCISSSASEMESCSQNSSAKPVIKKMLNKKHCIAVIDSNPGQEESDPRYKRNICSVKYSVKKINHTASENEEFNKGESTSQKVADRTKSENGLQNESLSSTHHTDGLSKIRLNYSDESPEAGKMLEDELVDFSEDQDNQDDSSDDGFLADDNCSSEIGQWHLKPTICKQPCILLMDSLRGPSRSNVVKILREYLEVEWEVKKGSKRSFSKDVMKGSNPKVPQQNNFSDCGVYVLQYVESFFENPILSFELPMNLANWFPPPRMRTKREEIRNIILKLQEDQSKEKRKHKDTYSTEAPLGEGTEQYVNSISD

[10] = target: Metabotropic glutamate receptor 4 (Rattus norvegicus, UniProt P31423); assay: Modulation of the Metabotropic Glutamate Receptor mGluR4: Rat PAM Potency. [Related pubchem assays (depositor defined):AID2437, AID2807]; type: functional
Sequence of Metabotropic glutamate receptor 4 (Rattus norvegicus, UniProt P31423) (P31423 whole entry): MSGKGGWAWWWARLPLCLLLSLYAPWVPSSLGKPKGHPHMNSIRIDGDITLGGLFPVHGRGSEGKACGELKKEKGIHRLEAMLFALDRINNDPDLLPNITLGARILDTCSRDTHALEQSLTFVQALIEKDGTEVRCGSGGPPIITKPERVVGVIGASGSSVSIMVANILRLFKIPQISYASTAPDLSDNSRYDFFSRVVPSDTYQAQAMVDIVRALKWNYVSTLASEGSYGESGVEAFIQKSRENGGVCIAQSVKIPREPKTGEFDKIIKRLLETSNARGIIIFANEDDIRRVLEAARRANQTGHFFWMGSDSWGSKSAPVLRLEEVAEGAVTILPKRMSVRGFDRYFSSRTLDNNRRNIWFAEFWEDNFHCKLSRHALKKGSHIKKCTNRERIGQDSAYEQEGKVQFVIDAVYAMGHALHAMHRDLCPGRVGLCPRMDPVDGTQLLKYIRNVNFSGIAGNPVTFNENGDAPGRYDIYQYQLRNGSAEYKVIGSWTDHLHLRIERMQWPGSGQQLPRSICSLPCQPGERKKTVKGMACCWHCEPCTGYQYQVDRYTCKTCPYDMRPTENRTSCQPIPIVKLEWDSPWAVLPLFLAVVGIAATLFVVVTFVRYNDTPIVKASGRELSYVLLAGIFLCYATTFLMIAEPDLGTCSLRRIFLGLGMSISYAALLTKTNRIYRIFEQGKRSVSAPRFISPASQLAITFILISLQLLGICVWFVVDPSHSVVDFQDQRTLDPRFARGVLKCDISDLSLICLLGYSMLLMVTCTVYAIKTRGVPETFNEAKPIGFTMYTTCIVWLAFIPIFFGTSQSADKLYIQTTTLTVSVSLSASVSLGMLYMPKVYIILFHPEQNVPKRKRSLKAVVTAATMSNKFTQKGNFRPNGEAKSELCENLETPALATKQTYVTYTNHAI

Caspase-3 = target: T5, Caspase-3 (Homo sapiens, UniProt P42574); type: functional;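 further: Dose-response selectivity test against caspase-3 for candidate inhibitors of sentrin-specific proteases (SENPs)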
T5 sequence (P42574 whole entry): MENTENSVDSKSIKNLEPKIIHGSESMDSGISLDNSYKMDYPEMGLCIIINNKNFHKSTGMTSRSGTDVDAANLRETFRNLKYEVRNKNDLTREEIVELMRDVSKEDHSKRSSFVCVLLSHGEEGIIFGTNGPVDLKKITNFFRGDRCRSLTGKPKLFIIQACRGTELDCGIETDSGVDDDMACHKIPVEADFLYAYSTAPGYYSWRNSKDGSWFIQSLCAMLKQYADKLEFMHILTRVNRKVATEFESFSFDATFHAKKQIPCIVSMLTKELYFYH

[11] = target: Metabotropic glutamate receptor 4 (Homo sapiens, UniProt Q14833); assay: Modulation of the Metabotropic Glutamate Receptor mGluR4: Potency at human mGluR4. Modulation of intracellular Ca2+ using Fluo-4, AM, in CHO expressing recombinant receptor [Related pubchem assays (depositor defined):AID2437, AID2807]; type: functional, cell-based
Sequence of Metabotropic glutamate receptor 4 (Homo sapiens, UniProt Q14833) (Q14833 whole entry): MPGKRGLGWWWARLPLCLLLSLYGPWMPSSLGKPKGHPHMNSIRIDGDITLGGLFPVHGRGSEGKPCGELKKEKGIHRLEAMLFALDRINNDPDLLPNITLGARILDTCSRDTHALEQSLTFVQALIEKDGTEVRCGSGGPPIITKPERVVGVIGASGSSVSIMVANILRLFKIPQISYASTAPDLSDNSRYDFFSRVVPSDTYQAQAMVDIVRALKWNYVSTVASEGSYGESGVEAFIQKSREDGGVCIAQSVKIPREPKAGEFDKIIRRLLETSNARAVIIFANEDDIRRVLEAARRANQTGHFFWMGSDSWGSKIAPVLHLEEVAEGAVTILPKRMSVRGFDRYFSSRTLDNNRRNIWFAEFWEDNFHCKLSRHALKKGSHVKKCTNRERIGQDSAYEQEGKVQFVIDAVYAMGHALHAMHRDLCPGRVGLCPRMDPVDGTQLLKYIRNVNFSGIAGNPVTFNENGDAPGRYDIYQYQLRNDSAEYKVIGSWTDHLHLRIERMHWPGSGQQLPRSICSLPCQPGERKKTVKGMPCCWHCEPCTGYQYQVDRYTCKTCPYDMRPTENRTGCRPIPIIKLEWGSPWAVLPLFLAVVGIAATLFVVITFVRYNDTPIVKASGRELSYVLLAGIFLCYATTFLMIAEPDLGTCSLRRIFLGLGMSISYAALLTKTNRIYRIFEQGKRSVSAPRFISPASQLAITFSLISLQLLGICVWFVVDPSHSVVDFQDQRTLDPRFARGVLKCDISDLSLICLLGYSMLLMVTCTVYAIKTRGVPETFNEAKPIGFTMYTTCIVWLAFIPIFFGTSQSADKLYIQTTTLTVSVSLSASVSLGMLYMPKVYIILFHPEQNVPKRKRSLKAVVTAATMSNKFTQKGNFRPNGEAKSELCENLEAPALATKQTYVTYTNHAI

[12] = target: T6, Sentrin-specific protease 8 (Homo sapiens, UniProt Q96LD8); type: functional;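 further: luminescence read-out of SENP8 inhibition, dose-response confirmation following an ultra-high-throughput screen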
T6 sequence (Q96LD8 whole entry): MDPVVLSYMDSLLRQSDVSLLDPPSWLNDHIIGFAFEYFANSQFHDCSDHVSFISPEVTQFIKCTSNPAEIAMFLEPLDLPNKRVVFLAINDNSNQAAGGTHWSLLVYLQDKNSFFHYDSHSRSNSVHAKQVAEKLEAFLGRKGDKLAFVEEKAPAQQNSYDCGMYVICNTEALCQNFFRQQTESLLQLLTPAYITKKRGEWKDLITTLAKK

[13] = target: T7, Sentrin-specific protease 7 (Homo sapiens, UniProt Q9BQF6); type: functional;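 further: Luminescence-based dose-response confirmation of ultra-high-throughput screening hits, measuring inhibition of SENP7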
T7 sequence (Q9BQF6 whole entry): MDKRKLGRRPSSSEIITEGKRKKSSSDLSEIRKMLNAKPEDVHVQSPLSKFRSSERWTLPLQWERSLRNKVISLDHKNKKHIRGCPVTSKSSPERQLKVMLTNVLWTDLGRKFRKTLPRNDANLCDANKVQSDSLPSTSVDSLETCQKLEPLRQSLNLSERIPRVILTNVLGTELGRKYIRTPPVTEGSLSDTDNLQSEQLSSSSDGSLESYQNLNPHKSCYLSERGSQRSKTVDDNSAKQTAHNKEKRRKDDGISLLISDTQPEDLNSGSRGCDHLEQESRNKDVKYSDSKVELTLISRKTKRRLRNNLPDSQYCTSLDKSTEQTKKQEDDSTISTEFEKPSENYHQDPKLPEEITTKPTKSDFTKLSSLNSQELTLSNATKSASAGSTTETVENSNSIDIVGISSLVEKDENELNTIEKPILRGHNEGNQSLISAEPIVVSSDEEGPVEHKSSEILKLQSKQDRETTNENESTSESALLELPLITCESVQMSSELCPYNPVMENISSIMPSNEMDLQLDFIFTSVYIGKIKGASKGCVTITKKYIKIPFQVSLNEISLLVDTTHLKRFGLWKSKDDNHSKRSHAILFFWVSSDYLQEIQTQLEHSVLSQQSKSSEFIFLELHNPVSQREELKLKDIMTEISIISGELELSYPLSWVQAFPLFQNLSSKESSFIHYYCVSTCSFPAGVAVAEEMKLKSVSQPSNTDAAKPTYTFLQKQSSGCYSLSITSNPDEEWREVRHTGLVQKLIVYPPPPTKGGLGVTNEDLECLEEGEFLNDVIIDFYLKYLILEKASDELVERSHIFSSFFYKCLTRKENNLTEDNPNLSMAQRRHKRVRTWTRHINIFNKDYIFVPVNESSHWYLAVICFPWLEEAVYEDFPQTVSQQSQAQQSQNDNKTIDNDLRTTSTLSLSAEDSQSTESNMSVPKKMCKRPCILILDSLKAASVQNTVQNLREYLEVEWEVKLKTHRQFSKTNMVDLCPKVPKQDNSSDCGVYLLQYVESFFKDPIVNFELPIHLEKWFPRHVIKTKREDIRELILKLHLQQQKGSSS

## CC(=O)OCCCNc1cc(Sc2ccc(C)cc2)c2nonc2c1[N+](=O)[O-]
[1]
  AC50: 12.4 µM (active)
[2]
  EC50: > 195 µM (not active)
Cells [3]
  EC50: > 350 µM (not active)
[4]
  EC50: 5.83 µM (active)
[5]
  AC50: > 70 µM (inactive)
Cells [6]
  EC50: > 350 µM (not active)
[7]
  IC50: 1.56 µM (active)
Beta-galactosidase
  EC50: > 40 µM (inactive)
[8]
  AC50: 1.1 µM (active)

## O=C(Nc1ccc(Cl)c(Cl)c1)c1ccco1
Protein skinhead-1
  IC50: 24.4 µM (active)
[9]
  IC50: 18.3 µM (active)
[10]
  EC50: 3.58 µM (active)
Caspase-3
  IC50: 17 µM (active)
[11]
  EC50: 4.54 µM (active)
[12]
  IC50: 21.7 µM (active)
[13]
  IC50: 5.24 µM (active)
